Experimental data from patent US4826819A, “Piperidine analgesics” (priority 1986, dated 1989).
Counter-ions that a name gives are not always drawn. Like-named read-outs stand apart in the source and are kept apart here.

What was measured:
[1] = target: T1, K (Kappa) opioid receptor (K sites) (Cavia porcellus, UniProt P41144); experiment: Opiate receptor binding to K sites (tritiated Ethylketocyclazocine); parameters: species or system guinea pig
T1 construct: performed on fresh guinea pig brain homogenate; from tissue; host or cells: guinea pig whole brain without cerebellum, homogenate
Protocol: (§1) Radio receptor binding to μ and k sites is performed on fresh guinea pig brain homogenate prepared according to Kosterlitz. (1981).
(§2) Whole brain without cerebellum is homogenized in 50 mM, Tris-buffer (pH 7.4 at 0° C.) and centrifuged at 49,000×g×10 min. The pellet is then resuspended in the same buffer, incubated at 37° C. for 45 min. and centrifuged again.
(§3) 1.9 ml of the final homogenate (1:100 in Tris-pH 7.4, 0° C.) is used for the binding assay.
Binding to K sites (Magnan J., 1982)
The binding of tritiated Ethylketocyclazocine to brain homogenate is measured in the presence of 100 nanomolar D-Ala-D-LeuEnkephalin (DADLE) and 100 nanomolar DAGO, added to saturate the δ and μ opioid receptors respectively.
Final homogenate with solutions of the cold ligand and of the labelled ligand is incubated for 40 min at 25° C., filtered through Whatman GF/C glass filter discs and washed.
The radioactivity bound to the filters is counted by liquid scintillation spectrophotometry.
MR 2266,500 nM is utilized to determine the saturable binding.
(§4) For the calculation of the kinetic parameters of the binding of labelled and unlabelled ligands, the equilibrium dissociation constant (KD), and the inhibition constant (Ki) and the maximum number of binding sites (B max) are determined from saturation curves and competition experiments (Hill 1910; Scatchard 1949; Cheng and Prusoff 1973; Gillan et al. 1980).
(§5) A concentration of radioligand near KD is used in the binding assays evaluating our compounds.

[2] = Mouse Tail-flick test (analgesic activity); type: in vivo, mouse (male Charles River mice); conditions: for % Protection (percent number of mice doubling the initial reaction time): 1 mg Kg^-1, 30 min after dosing
[3] = target: T2, μ opioid receptor (μ sites) (Cavia porcellus, UniProt A0ACM8Q262); experiment: Opiate receptor binding to μ sites (3H-DAGO)
T2 construct: 3H-DAGO displacement
Protocol: as §1, §2, §3
Binding to μ sites (Magnan J., 1982)
^3 H [D-Ala^2, MePhe^4, Gly-ol^5 ] Enkephalin (^3 H-DAGO), an enkephalin analogue that binds selectively to μ-receptors, is added to the biological substrate and incubated at 25° C. for 40 min., filtered through Whatman GF-C and washed with ice-cold Tris-buffer.
The filters are then dried, solubilized in Filtercount and the radioactivity monitored. Non specific binding is determined in the presence of 10^-6 M Naloxone.
as §4, §5

[4] = guinea pig brain homogenate, tritiated Ethylketocyclazocine with 100 nM DADLE and 100 nM DAGO, 25° C., 40 min, read-out: Ki, opiate receptor binding, K
[5] = sc, 0.5 h, subcutaneous, read-out: ED50 subcutaneous
[6] = guinea pig brain homogenate, 25° C., 40 min, read-out: Ki, opiate receptor binding, μ

T2 sequence (A0ACM8Q262 1-400): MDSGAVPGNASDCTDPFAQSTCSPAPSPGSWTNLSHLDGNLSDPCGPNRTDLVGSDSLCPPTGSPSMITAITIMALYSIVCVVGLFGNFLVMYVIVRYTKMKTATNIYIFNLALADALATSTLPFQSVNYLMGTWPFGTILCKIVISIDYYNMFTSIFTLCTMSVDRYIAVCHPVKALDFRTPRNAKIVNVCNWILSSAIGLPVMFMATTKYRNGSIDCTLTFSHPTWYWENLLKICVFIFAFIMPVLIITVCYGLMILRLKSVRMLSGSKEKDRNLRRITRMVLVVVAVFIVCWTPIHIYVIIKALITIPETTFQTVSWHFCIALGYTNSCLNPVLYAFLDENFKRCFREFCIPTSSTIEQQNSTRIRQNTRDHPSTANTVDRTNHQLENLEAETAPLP
T1 sequence (P41144 whole entry): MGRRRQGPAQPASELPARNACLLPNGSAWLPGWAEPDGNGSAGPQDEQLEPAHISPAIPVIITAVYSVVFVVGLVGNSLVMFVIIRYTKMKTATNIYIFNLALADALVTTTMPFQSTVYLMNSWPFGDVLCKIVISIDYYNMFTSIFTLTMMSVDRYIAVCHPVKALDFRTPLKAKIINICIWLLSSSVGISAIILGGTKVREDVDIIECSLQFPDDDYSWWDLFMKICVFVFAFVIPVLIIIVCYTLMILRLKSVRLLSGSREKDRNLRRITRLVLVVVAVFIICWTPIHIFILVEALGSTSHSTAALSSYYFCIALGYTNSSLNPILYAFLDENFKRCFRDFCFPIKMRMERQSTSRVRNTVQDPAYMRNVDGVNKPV

Structure (SMILES)	Ki [1, 4] [nM]	ED50 ([2]; oral (os), read-out: ED50 oral) [mg/kg]	ED50 [2, 5] [mg/kg]	% Protection (percent number of mice doubling the initial reaction time) ([2]; subcutaneous) [%]	Ki [3, 6] [nM]	Ki [1] [nM]	Ki ([3]; read-out: Ki, opiate receptor binding, μ, guinea pig brain homogenate, 25° C., 40 min) [nM]
O=C(Cc1ccc([N+](=O)[O-])cc1)N1CCCCC1CN1CCCC1 (racemic) [Example 4, (2R,S)-1-(4-nitrophenylacetyl)-2-(1-pyrrolidinylmethyl)piperidine hydrochloride]	37.9	5.45	0.55	80	12800	–	–
O=C(Cc1cccc(C(F)(F)F)c1)N1CCCCC1CN1CCCC1 (racemic) [Example 2, (2R,S)-1-(3-trifluoromethylphenylacetyl)-2-(1-pyrrolidinylmethyl)piperidinehydrochloride hemihydrate]	3.07	4.61	0.43	–	> 10000	–	–
O=C(Cc1cccc([N+](=O)[O-])c1)N1CCCCC1CN1CCCC1 (racemic) [Example 1, (2R,S)-1-(3-nitrophenylacetyl)-2-(1-Pyrrolidinylmethyl) piperidine hydrochloride]	5.96	–	0.97	–	> 10000	–	–
O=C(Cc1ccc(Br)cc1)N1CCCCC1CN1CCCC1 (racemic) [Example 6, (2R,S)-1-(4-bromophenylacetyl)-2-(1-pyrrolidinylmethyl)piperidine hydrochloride]	6.61	4.12	0.52	80	3130	–	–
O=C(Cc1ccc(C(F)(F)F)cc1)N1CCCC[C@H]1CN1CCCC1 [Example 3, (2S)-1-(4-trifluoromethylphenylacetyl)-2-(1-pyrrolidinylmethyl) piperidine hydrochloride sesquihydrate]	–	0.67	0.14	–	–	4.05	2540
O=C(Cc1ccc(C(F)(F)F)cc1)N1CCCCC1CN1CCCC1 (racemic) [Example 5, (2R,S)-1-(4-trifluoronethylphenylacetyl)-2-(1pyrrolidinylmethyl)piperidine hydrochloride]	3.59	1.08	0.23	100	3090	–	–
